From ChEMBL document CHEMBL5724558, “Image-based profiling of drug vulnerabilities in CRC organoids” (2024)
Where “and” joins values, the source holds several entries; their conditions need not be identical. Identical values can stand only once.

Assays:
Format in all cases: functional, Homo sapiens
Design in all cases: dose or concentration left out as unconfirmed
Colon cancer organoid [1] = experiment: (§1) Image-based profiling of donated chemical probes and chemogenomic kinase set in O06 CRC organoid. Image analysis is performed on the sum area metric, and the data were normalized to the DMSO control. After imaging the organoid viability is measured using the OneGloEX Luciferase Assay System. The normalized viability data and sum area are reported.
Colon cancer organoid [2] = experiment: as §1, with “O21” for “O06”
Colon cancer organoid [3] = experiment: as §1, with “O09” for “O06”

Row | Structure (SMILES) | Cell Viability (Colon cancer organoid [1]; Replication number 1) | Cell Viability (Colon cancer organoid [1]; Replication number 2) | Cell Viability (Colon cancer organoid [2]; Replication number 1) | Cell Viability (Colon cancer organoid [2]; Replication number 2) | Cell Viability (Colon cancer organoid [3]; Replication number 1) | Cell Viability (Colon cancer organoid [3]; Replication number 2)
1 | O=C(c1ccc(C(=O)N2CCC(N3CCCC3)CC2)c(Nc2ccccc2)c1)N1CCC(N2CCCC2)CC1 | 185.477% and 131.195% | 168.44% and 129.527% | 116.035% and 118.746% | 94.3605% and 99.3437% | 81.7706% and 92.0402% | 143.807% and 112.037%
2 | CC(C)N(CCCNC(=O)Nc1ccc(C(C)(C)C)cc1)C[C@H]1O[C@@H](n2cc(Br)c3c(N)ncnc32)[C@H](O)[C@@H]1O | 99.7362% and 93.745% | 121.159% and 96.0701% | 110.58% and 96.4076% | 91.3203% and 86.9928% | 88.0955% and 91.1128% | 116.782% and 110.611%
3 | COc1cc2c(cc1OCCCN1CCCC1)N=C(N)C21CCC1 | 110.816% and 131.678% | 106.27% and 117.339% | 92.2277% and 112.28% | 68.723% and 97.1957% | 70.9946% and 111.515% | 77.9538% and 123.155%
4 | CCOC(=O)CCNc1cc(N2CCc3ccccc3CC2)nc(-c2ccccn2)n1 | 148.439% and 134.336% | 153.418% and 113.038% | 97.5264% and 129.915% | 84.038% and 100.955% | 78.8625% and 87.8671% | 139.531% and 105.195%
5 | O=C(O)CNC(=O)c1c(O)c2ccccc2n(Cc2ccccc2)c1=O | 94.9232% and 53.396% | 101.3% and 76.2347% | 116.47% and 93.4683% | 109.318% and 89.1408% | 105.314% and 91.1128% | 142.9% and 106.905%
6 | COc1ccccc1C(=O)Nc1cc2c(cc1N1CCCC1)n(C)c(=O)n2C | 152.076% and 120.081% | 178.087% and 127.616% | 97.0271% and 91.1169% | 104.009% and 97.7327% | 131.649% and 89.49% | 142.608% and 94.0767%
7 | CCCc1cc(C)[nH]c(=O)c1CNC(=O)c1cc(-c2ccc(N3CCN(C(C)C)CC3)nc2)cc2c1cnn2C(C)C | 117.017% and 105.342% | 150.35% and 108.975% | 90.7936% and 81.7113% | 90.0059% and 120.286% | 144.261% and 110.819% | 125.635% and 91.796%
8 | CCCOc1ccn2c(C(C)=O)cc(-c3ccccc3S(C)(=O)=O)c2c1 | 138.616% and 118.389% | 149.88% and 120.685% | 106.031% and 126.388% | 99.7688% and 110.084% | 82.358% and 82.5348% | 234.066% and 124.865%
9 | Cc1cc(=O)n(C)c2cc(N3C(=O)CC[C@H](NS(=O)(=O)CC(C)C)[C@H]3c3ccc(Cl)cc3)ccc12 | 144.152% and 97.8523% | 176.827% and 107.063% | 117.189% and 110.516% | 129.923% and 112.232% | 117.261% and 101.082% | 140.716% and 110.041%
10 | C[C@@H]1CC(=O)Nc2cccc(-c3ccc4c(c3)c(-c3cnn(C)c3)nn4C)c2N1 | 59.3391% and 89.8792% | 80.6716% and 83.4041% | 80.8439% and 121.097% | 82.2884% and 110.621% | 75.8759% and 56.1051% | 135.457% and 81.8182%
11 | CCN(C(=O)CO)[C@H]1CN(/C(=N\C#N)Nc2cccc(OC(F)F)c2)N=C1c1ccc(Cl)c(Cl)c1 | 122.514% and 121.772% | 131.133% and 123.792% | 56.7523% and 64.6636% | 98.5958% and 108.473% | 95.5807% and 90.881% | 163.22% and 117.738%
12 | CC(=O)c1cc(-c2cc(C(=O)NC3CC3)ccc2C)c2ncccn12 | 115.093% and 116.94% | 131.559% and 119.251% | 100.074% and 118.158% | 94.4985% and 97.1957% | 163.828% and 97.8362% | 113.773% and 107.19%
13 | Nc1ncnc2c1ccn2[C@@H]1O[C@H]([C@H](O)c2ccccc2)[C@@H](O)[C@H]1O | 27.0632% and 78.2819% | – | 74.1764% and 78.772% | 70.798% and 78.401% | 67.0274% and 58.6553% | 77.7398% and 60.4371%
